Molecular target: T1, EGFR^WT kinase (Homo sapiens, UniProt P00533)
T1 construct: commercial wild-type EGFR kinase (Sigma Aldrich)
Assay: HTRF KinEASE-TK kinase assay
Format: biochemical

T1 sequence (P00533 25-1210): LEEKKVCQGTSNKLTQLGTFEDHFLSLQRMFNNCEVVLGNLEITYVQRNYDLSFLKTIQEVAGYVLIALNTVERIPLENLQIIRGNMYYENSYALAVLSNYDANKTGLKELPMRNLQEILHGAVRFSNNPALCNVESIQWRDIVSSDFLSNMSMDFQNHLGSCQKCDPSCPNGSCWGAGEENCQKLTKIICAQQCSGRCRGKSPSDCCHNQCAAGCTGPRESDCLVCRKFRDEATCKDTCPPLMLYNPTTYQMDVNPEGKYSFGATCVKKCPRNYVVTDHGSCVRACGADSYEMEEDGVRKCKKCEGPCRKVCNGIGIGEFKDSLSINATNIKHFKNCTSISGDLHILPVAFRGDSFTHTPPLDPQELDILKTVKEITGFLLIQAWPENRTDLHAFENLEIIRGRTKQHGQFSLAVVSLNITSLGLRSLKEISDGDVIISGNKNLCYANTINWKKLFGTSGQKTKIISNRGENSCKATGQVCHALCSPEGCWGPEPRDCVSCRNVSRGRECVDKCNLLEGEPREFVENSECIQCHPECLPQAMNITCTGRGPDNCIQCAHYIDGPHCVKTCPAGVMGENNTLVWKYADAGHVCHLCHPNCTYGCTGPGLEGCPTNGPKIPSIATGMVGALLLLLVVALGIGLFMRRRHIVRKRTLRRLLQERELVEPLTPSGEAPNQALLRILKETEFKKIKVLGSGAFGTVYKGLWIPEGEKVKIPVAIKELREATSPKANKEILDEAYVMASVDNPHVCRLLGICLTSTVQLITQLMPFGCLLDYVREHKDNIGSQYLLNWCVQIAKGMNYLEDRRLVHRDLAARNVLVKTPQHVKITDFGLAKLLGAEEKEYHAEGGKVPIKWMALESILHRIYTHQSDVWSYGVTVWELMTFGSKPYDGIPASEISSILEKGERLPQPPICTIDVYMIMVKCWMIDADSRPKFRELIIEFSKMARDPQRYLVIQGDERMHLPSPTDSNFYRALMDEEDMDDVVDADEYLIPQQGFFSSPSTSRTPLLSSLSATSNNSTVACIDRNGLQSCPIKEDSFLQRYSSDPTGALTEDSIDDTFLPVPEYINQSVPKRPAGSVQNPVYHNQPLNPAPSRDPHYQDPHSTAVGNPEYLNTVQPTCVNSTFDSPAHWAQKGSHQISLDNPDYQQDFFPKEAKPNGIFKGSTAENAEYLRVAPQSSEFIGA

IC50: 191 nM
SMILES: C=C(C)[C@H]1C=C2[C@H](C)CC[C@H](Cc3c(O)c(C=O)c4c(c3O)C(=O)CC(C)(C)O4)[C@@]2(C)CC1 [R14, Eucarbwenstols D]

— publication doi:10.1101/2025.02.22.639610v1, “Excavating Podocyte-Protective Targets of phloroglucinol-terpene hybrids Utilizing AI Models and Omics Analysis” (biorxiv, 2025)
